Assay results from ChEMBL document CHEMBL4819137, “Huprine Y - Tryptophan heterodimers with potential implication to Alzheimer's disease treatment” (Bioorg Med Chem Lett, 2021).

Tests used:
Nitric oxide synthase 1 [1] = biological target: T1, Nitric oxide synthase 1 (Homo sapiens, UniProt P29475)
Description: Inhibition of recombinant human nNOS

Nitric oxide synthase 1 [2] = biological target: T1, Nitric oxide synthase 1; remark: listed apart in the source
Description: Inhibition of recombinant human nNOS

Acetylcholinesterase [3] = biological target: T2, Acetylcholinesterase (Homo sapiens, UniProt P22303); experiment: Non competitive type inhibition of human AChE assessed as inhibition constant using varying levels of acetylthiocholine as substrate by double reciprocal Lineweaver-Burk plot analysis
T2 sequence (P22303 whole entry): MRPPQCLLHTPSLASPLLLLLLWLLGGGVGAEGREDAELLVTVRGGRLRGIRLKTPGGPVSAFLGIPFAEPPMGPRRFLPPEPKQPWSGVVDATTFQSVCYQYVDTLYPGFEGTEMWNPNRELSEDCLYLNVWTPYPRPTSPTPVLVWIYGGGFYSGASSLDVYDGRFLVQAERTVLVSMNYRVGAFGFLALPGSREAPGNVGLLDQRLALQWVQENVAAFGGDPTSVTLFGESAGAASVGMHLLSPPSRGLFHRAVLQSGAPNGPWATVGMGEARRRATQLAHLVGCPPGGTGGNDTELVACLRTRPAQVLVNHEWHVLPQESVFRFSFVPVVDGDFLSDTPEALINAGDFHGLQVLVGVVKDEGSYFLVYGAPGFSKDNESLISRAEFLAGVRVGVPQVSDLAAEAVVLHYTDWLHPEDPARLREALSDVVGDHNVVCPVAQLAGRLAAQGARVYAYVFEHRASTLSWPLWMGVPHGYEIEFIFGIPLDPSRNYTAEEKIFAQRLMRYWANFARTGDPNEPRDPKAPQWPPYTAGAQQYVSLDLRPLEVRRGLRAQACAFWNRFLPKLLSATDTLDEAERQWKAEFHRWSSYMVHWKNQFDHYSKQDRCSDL

HepG2 = experiment: cells; settings: Homo sapiens, HepG2, 24 h
Description: Cytotoxicity against human HepG2 cells assessed as reduction in cell viability measured after 24 hrs by MTT assay

Cholinesterase = Cholinesterase (Homo sapiens, UniProt P06276)
Chain of Cholinesterase (P06276 whole entry): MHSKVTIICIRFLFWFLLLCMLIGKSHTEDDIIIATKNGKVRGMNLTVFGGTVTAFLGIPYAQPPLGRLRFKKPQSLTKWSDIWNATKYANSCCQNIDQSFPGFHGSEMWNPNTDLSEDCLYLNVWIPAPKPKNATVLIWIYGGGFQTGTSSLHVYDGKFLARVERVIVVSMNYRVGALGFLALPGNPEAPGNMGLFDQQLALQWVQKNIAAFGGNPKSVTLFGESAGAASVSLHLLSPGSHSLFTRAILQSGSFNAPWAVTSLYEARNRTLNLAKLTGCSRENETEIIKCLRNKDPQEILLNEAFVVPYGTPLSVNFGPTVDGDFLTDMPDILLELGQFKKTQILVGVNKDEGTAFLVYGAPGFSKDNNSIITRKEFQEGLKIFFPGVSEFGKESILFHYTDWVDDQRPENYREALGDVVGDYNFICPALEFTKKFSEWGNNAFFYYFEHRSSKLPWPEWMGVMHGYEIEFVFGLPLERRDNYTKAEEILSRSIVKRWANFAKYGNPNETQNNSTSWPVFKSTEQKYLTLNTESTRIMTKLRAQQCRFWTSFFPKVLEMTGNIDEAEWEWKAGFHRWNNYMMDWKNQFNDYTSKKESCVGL
Description: Inhibition of recombinant human BuChE using butyrylthiocholine as substrate by Ellman's method

Acetylcholinesterase [4] = biological target: T2, Acetylcholinesterase
Description: Inhibition of recombinant human AChE using acetylthiocholine as substrate by DTNB-reagent based Ellman's method

T1 sequence (P29475 whole entry): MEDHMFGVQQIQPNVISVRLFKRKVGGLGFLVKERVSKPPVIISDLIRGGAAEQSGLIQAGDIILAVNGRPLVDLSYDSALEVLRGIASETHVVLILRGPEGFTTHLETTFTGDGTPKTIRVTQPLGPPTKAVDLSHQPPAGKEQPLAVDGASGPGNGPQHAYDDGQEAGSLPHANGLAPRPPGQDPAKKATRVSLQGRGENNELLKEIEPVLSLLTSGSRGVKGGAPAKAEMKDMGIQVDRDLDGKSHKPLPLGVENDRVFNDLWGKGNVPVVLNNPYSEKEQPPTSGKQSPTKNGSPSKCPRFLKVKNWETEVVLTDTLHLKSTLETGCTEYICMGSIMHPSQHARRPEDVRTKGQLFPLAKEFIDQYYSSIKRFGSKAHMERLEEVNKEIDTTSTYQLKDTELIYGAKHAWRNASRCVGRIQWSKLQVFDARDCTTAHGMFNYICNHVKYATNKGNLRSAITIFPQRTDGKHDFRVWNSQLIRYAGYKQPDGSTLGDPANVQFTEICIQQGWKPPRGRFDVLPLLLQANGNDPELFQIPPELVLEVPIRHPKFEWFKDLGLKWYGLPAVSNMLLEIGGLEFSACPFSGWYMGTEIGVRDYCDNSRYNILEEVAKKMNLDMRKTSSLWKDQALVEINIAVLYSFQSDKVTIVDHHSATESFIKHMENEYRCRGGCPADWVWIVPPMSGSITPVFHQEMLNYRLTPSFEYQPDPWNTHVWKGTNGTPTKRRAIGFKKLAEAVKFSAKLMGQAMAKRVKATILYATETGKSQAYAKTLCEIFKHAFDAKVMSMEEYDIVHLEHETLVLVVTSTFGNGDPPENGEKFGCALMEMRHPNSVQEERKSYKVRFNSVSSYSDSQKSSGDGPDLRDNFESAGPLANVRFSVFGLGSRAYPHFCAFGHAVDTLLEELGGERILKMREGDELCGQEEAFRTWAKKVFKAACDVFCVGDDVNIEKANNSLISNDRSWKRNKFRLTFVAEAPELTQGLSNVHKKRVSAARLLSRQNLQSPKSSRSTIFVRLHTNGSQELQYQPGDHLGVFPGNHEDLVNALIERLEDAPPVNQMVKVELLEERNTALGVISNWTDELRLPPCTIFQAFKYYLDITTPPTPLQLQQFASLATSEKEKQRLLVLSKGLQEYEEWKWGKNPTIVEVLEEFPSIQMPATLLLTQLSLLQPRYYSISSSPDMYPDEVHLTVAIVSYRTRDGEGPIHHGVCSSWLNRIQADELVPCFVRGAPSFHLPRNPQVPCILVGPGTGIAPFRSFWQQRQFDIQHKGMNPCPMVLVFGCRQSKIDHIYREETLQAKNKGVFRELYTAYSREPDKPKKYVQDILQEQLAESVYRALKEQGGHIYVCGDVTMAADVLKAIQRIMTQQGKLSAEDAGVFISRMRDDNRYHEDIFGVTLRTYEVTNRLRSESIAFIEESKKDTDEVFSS

COc1ccc2nc3c(c(N)c2c1)CCCC3
IC50 (Nitric oxide synthase 1 [1]): Not Active

Nc1c2c(nc3cc(Cl)ccc13)CCCC2
IC50 (Nitric oxide synthase 1 [1]): Not Active

N[C@@H](Cc1c[nH]c2ccccc12)C(=O)NCCCCCCNc1c2c(nc3cc(Cl)ccc13)CCCC2
IC50 (Nitric oxide synthase 1 [2]): 26 µM

CC1=CC2Cc3nc4cc(Cl)ccc4c(NCCCCCCNC(=O)[C@@H](N)Cc4c[nH]c5ccccc45)c3C(C1)C2 (some centres undefined)
Ki (Acetylcholinesterase [3]): 23 nM | IC50 (HepG2): 5.63 µM | IC50 (Cholinesterase): 45.7 nM | IC50 (Acetylcholinesterase [4]): 11.7 nM | IC50 (Nitric oxide synthase 1 [2]): 18.5 µM

CC1=CC2Cc3nc4cc(Cl)ccc4c(NCCCCCNC(=O)[C@@H](N)Cc4c[nH]c5ccccc45)c3C(C1)C2 (some centres undefined)
IC50 (HepG2): 4.77 µM | IC50 (Cholinesterase): 68.3 nM | IC50 (Acetylcholinesterase [4]): 22.7 nM | IC50 (Nitric oxide synthase 1 [2]): 24 µM

CC1=CC2Cc3nc4cc(Cl)ccc4c(NCCCCCCCNC(=O)[C@@H](N)Cc4c[nH]c5ccccc45)c3C(C1)C2 (some centres undefined)
IC50 (HepG2): 12.3 µM | IC50 (Cholinesterase): 84.5 nM | IC50 (Acetylcholinesterase [4]): 12.1 nM | IC50 (Nitric oxide synthase 1 [2]): 35 µM

COc1ccc2nc3c(c(N)c2c1)C1CC(C)=CC(C3)C1 (racemic)
IC50 (HepG2): 14.9 µM | IC50 (Nitric oxide synthase 1 [2]): 32 µM

CC1=CC2Cc3nc4cc(Cl)ccc4c(N)c3C(C1)C2 (racemic)
IC50 (HepG2): 15.9 µM
